Legend:
cerebral organoids [1] = assay: Flow cytometry of marker expression after DAPT treatment; type: cell-based, human
Experimental: Cerebral organoids, cerebral cortical cell aggregates, and high-purity cerebral cortical cell aggregates were dispersed into single cells by using dispersing solution for neural cells (FUJIFILM Wako Pure Chemical Corporation), fixed by using Fixation Buffer (BD Biosciences) at 4° C. for 30 minutes, then treated with Perm/Wash buffer (BD Biosciences) at room temperature for 15 minutes, subjected to double or triple staining, and analyzed by using an Aria III. The analysis software used was FACSDiva software (BD). The primary antibodies and secondary antibodies used are shown in the following. • PerCP-Cy5.5 Mouse IgGI k isotype control: 550795 (BD Biosciences) Alexa 647 Mouse Anti-human Oct3/4 antigen: 560329 (BD Biosciences) • Tra-2-49/6E-FITC antibody: FCMAB133F (Merck) • Alexa647 mouse anti β-tubulin Class III: 560394 (BD) • PerCP-Cy5.5 Mouse anti-Human Sox1: 561549 (BD) • Alexa647 mouse anti-Human Pax6: 561165(BD) • Alexa488 mouse anti-Ki67: 562249 (BD) • Alexa488 rat anti-Ctip2 antibody: ab123449 (Abcam)
Next, cell aggregates immediately after DAPT treatment (immediately after the completion of step (ii)) were analyzed for the proportions of constituent cells by means of flow cytometry. Cerebral organoids on Day 40 were subjected to DAPT treatment for 3 days, and expressions of marker genes were then analyzed by flow cytometry.
Furthermore, iPS cells on Day 0 (undifferentiated iPS cells), organoids not subjected to DAPT treatment (Ctrl, without step (ii)), organoids subjected to DAPT treatment for 3 days (Day 40 to 43) (DAPT 3d, with step (ii)), and organoids subjected to DAPT treatment for 3 days and subsequently cultured again, as cell aggregates without being dispersed into cells, with a culture medium removed of DAPT for 4 days (DAPT 3d+Release 4d, with step (ii) and step (iv), and without step (iii)) were analyzed by flow cytometry; the results are shown in FIG. 15.
Culture was performed in the same manner as the scheme in FIG. 3 as in Example 1 from −Day 7 to Day 35. A culture medium obtained by adding 5 μM SB431542 to StemFit culture medium without solution C(=bFGF-free culture medium) was used in step (1) in the case of “with preparation for neural differentiation” (with step (1)), and StemFit culture medium was used in the case of “without preparation for neural differentiation” (without step (1)). Thereafter, cerebral cortical cell aggregates were induced by the method described for step (ii) in Example 4, and evaluated by immunostaining. In addition, high-density cerebral cortical cell aggregates were induced by dispersing into single cells and then reaggregating the single cells by the method described for step (iii) and step (iv) in Example 4, and analyzed by flow cytometry.
In the “single-cell DAPT method (DAPT treatment is performed in step (iv))” in FIG. 24(B), cerebral organoids were screened on day 38 after the initiation of induction of differentiation and dispersed into single cells by the method described for step (iii) in Example 4, and the cells were then suspended in a culture medium obtained by adding 10 ng/mL GDNF, 20 ng/mL BDNF, 200 μM ascorbic acid, 400 μM dibutyryl-cAMP, and 30 μM Y-27632 to the culture medium in step (2b) with addition of DAPT at a concentration of 0 μM, 0.1 μM, 1 μM, or 10 μM. Subsequently, the cells were regathered by the method described for step (iv) in Example 4 in the presence of DAPT, and cultured for 1 day, 2 days, or 3 days. Thereafter, the culture medium was switched to a culture medium obtained by adding 10 ng/mL GDNF, 20 ng/mL BDNF, 200 μM ascorbic acid, and 400 μM dibutyryl-cAMP to the culture medium in step (2b), and culture was continued until day 10 after the initiation of reaggregation. The cells on day 3, day 4, or day 10 after the initiation of reaggregation were analyzed by RT-qPCR, and the cells on day 10 were analyzed by flow cytometry; the results are shown in FIGS. 25 to 27. […]

cerebral organoids [2] = assay: Single-cell gene expression analysis of Rosettes organoids with or without DAPT; type: cell-based, human; settings: Rosettes organoids treated with DAPT for 3 days (DAPT+)
Experimental: First, to prepare a single-cell suspension from an organoid, the organoid was separated into single cells with dispersing solution for neural cells (FUJIFILM Wako Pure Chemical Corporation) under recommended conditions. The dispersed cells were resuspended in HBSS supplemented with 10% (v/v) KSR and 10 μM Y-27632 (FUJIFILM Wako Pure Chemical Corporation) at a density of 1,000 cells/μL. Into a Chromium Next GEM Chip G (2000177 10X Genomics, Inc.), approximately 4,670 cells were loaded per channel, and treated with a Chromium controller to acquire Gel Beads-in-Emulsion (GEM). Libraries were produced by using Chromium Next GEM Single Cell 3′ Reagent Kits v3.1 (1000121; 10X Genomics, Inc.) in accordance with a protocol from the manufacturer (CG000204 Rev C). The sequences of the libraries were analyzed with Novaseq 6000 (Illumina, Inc.).
Cell Ranger pipeline was used for mapping of sequences in single-cell RNA-seq. GRCh38 human genome sequences were used as reference genome sequences. UMI count values acquired through analysis with a next-generation sequencer were analyzed by using Seurat R package. First, data of organoids were normalized by a Log-Normalize method, and then all the data of organoids were integrated. […]

[3] = DAPT 3d+Release 4d: DAPT 3 days, then 4 days in medium removed of DAPT, without dispersion
[4] = single-cell DAPT method (step (iv)), DAPT raised from 0 μM to 10 μM, 3 days treatment, 10 days culture
[5] = week 5 organoids dispersed, 10 μM DAPT 3 days, then DAPT-free culture to 4 days vs 14 days
[6] = without preparation for neural differentiation (without step (1)), DAPT treatment, dispersion and reaggregation

For `C[C@H](NC(=O)Cc1cc(F)cc(F)c1)C(=O)N[C@H](C(=O)OC(C)(C)C)c1ccccc1` [DAPT, N-[N-(3,5-difluorophenacetyl)-L-alanyl]-S-phenylglycine t-butyl ester], the “proportion of Ki67/Sox1/Pax6-triple-positive cells” value (cerebral organoids [1]; [3]) was 0%, the “proportion of cells co-positive for Ctip2 and βIII-tubulin” value (cerebral organoids [1]; [3]) was 87.4% and the “proportion of Pax6-positive/Sox1-positive/Ki67-positive cells (proliferative cells)” value (cerebral organoids [1]; cerebral organoids on Day 40, DAPT treatment for 3 days (DAPT 3d)) was 0.01%. The “proportion of Ctip2/βIII-tubulin-double-positive cells” value (cerebral organoids [1]; cerebral organoids on Day 40, DAPT treatment for 3 days (DAPT 3d), all viable cells) was 86.1%, the “proportion of Pax6/Ki67-double-positive neural stem cells (radial glia)” value (cerebral organoids [1]; cerebral organoids on Day 40, DAPT treatment for 3 days, all viable cells) was 1.5% and the “cells with co-expression of Tra2-49/6E and Oct4 (undifferentiated iPS cell indicator)” value (cerebral organoids [1]; organoids under any of the conditions (DAPT 3d, DAPT 3d+Release 4d)) was “not detected”. The “proportion of Ctip2/βTubIII (Tuj1)-double-positive cells” value (cerebral organoids [1]; [4]) was 89.6%, the “proportion of Pax6-positive/Sox1-positive/Ki67-positive cells (proliferative cells)” value (cerebral organoids [1]; [4]) was 0.8% and the “proportion of Ctip2/Tuj1-co-positive cells” value (cerebral organoids [1]; [5]) was “increase”. For the same molecule, the “proportion of Pax6/Ki67-double-positive cells and of Pax6/Ki67/Sox1-triple-positive cells” value (cerebral organoids [1]; [5]) was “decreased as the culture period after DAPT treatment was extended”, the “proportion of Ctip2/βTubIII-double-positive cells” value (cerebral organoids [1]; [6]) was 85.9% and the “proportion of Pax6-positive/Sox1-positive/Ki67-positive cells (proliferative cells)” value (cerebral organoids [1]; [6]) was 0%. The “proportion of Pax6/Ki67-double-positive neural stem cells (radial glia)” value (cerebral organoids [1]; [6]) was 1.9% and the “cell population with expression of Pax6 and MKI67” value (cerebral organoids [2]) was “largely shrunk”.
